Assay results from article doi:10.1101/2023.10.01.560353v1 (bioRxiv, 2023).
Converted amounts (≈) assume the structure as drawn. Peptide text beside a SMILES is read from it.

Columns and labels:
[1] = tested on: 11 clinically relevant bacterial pathogens; experiment: MIC over the panel of pathogens; type: cell-based; conditions: Table S17; lowest MIC over the strains tested
A. baumannii ATCC19606 = experiment: Outer membrane permeabilization, NPN uptake; type: cell-based, Acinetobacter baumannii; conditions: peptide at its MIC; polymyxin B as positive control; three replicates
A. baumannii ATCC 19606 [2] = experiment: MIC, broth microdilution; type: cell-based, Acinetobacter baumannii; conditions: broth microdilution in LB, 20 h at 37 °C, OD600; mean of three replicates
A. baumannii ATCC 19606 [3] = experiment: Neutropenic thigh infection mouse model; type: in vivo, CD-1 mice; conditions: single intraperitoneal dose at MIC, n = 6

Molecule: CC[C@H](C)[C@H](NC(=O)[C@H](CO)NC(=O)CNC(=O)[C@H](CC(C)C)NC(=O)[C@H](CC(C)C)NC(=O)[C@H](CC(C)C)NC(=O)[C@H](CCCNC(=N)N)NC(=O)[C@H](CCCCN)NC(=O)[C@@H](NC(=O)[C@H](CO)NC(=O)[C@H](CC(N)=O)NC(=O)[C@@H](NC(=O)[C@H](CC(C)C)NC(=O)[C@@H](N)CC(C)C)[C@@H](C)CC)[C@@H](C)CC)C(=O)N[C@@H](CC(C)C)C(=O)O [Arctodutin-1] (H-LLINSIKRLLLGSIL-OH)
- MIC (lowest MIC value obtained in the antimicrobial activity assays) [1]: 2000 mM (≈ 3330 mg/mL)
- outer membrane permeabilization (NPN uptake) (A. baumannii ATCC19606): permeabilized the outer membrane

Molecule: CC[C@H](C)[C@H](N)C(=O)N[C@@H](Cc1ccccc1)C(=O)N[C@@H](CC(C)C)C(=O)N[C@@H](Cc1c[nH]cn1)C(=O)N[C@@H](CC(C)C)C(=O)N[C@@H](CCCCN)C(=O)N[C@H](C(=O)N[C@@H](CC(C)C)C(=O)N[C@@H](CCCCN)C(=O)N[C@H](C(=O)N[C@H](C(=O)N[C@@H](CCCNC(=N)N)C(=O)N[C@@H](CC(C)C)C(=O)N[C@@H](CC(C)C)C(=O)O)[C@@H](C)CC)[C@@H](C)CC)[C@@H](C)CC [Elephasin-2] (H-IFLHLKILKIIRLL-OH)
- Minimal Inhibitory Concentration: A. baumannii ATCC19606 (A. baumannii ATCC 19606 [2]): 1 µmol/L
- MIC (lowest MIC value obtained in the antimicrobial activity assays) [1]: 1000 mM (≈ 1730 mg/mL)
- reduction of the bacterial load four days post-treatment (A. baumannii ATCC 19606 [3]): 3-4 orders of magnitude

Molecule: CC[C@H](C)[C@H](NC(=O)[C@H](CCCCN)NC(=O)[C@H](CCCCN)NC(=O)[C@H](Cc1ccccc1)NC(=O)[C@H](Cc1ccccc1)NC(=O)[C@@H](NC(=O)[C@@H](NC(=O)[C@H](CO)NC(=O)[C@H](CCCCN)NC(=O)[C@@H](NC(=O)[C@@H](NC(=O)[C@H](Cc1c[nH]c2ccccc12)NC(=O)[C@H](CCCCN)NC(=O)[C@H](CCCCN)NC(=O)[C@@H](NC(=O)[C@H](CCC(=O)O)NC(=O)[C@H](CCCCN)NC(=O)[C@H](CC(C)C)NC(=O)[C@@H](NC(=O)[C@H](CCCCN)NC(=O)[C@H](CCCNC(=N)N)NC(=O)[C@H](CC(C)C)NC(=O)[C@H](CC(C)C)NC(=O)[C@@H](N)CCCCN)C(C)C)[C@@H](C)O)C(C)C)[C@@H](C)CC)C(C)C)C(C)C)C(=O)N[C@@H](CCCNC(=N)N)C(=O)N[C@@H](CCCCN)C(=O)O [Hesperelin-1] (H-KLLRKVLKETKKWVIKSVVFFKKIRK-OH)
- Minimal Inhibitory Concentration: A. baumannii ATCC19606 (A. baumannii ATCC 19606 [2]): 8 µmol/L
- MIC (lowest MIC value obtained in the antimicrobial activity assays) [1]: 2000 mM (≈ 6490 mg/mL)

Molecule: CC[C@H](C)[C@H](NC(=O)[C@H](CO)NC(=O)[C@H](CCCNC(=N)N)NC(=O)[C@H](C)NC(=O)[C@H](Cc1c[nH]cn1)NC(=O)[C@H](CC(C)C)NC(=O)[C@H](CS)NC(=O)[C@H](C)NC(=O)[C@@H](N)CCCNC(=N)N)C(=O)N[C@@H](C)C(=O)N[C@@H](CCCNC(=N)N)C(=O)N[C@@H](CC(C)C)C(=O)N[C@@H](Cc1c[nH]cn1)C(=O)N[C@@H](CCCCN)C(=O)N[C@@H](CCCNC(=N)N)C(=O)N[C@@H](Cc1c[nH]c2ccccc12)C(=O)N[C@@H](CCCNC(=N)N)C(=O)N1CCC[C@H]1C(=O)N[C@H](C(=O)N[C@@H](Cc1c[nH]cn1)C(=O)N[C@@H](CCC(N)=O)C(=O)NCC(=O)N[C@@H](CC(C)C)C(=O)NCC(=O)N[C@@H](CC(C)C)C(=O)N[C@@H](CCCCN)C(=O)O)C(C)C [Mammuthusin-2] (H-RACLHARSIARLHKRWRPVHQGLGLK-OH)
- Minimal Inhibitory Concentration: A. baumannii ATCC19606 (A. baumannii ATCC 19606 [2]): 32 µmol/L
- MIC (lowest MIC value obtained in the antimicrobial activity assays) [1]: 32000 mM (≈ 97900 mg/mL)
- reduction of the bacterial load four days post-treatment (A. baumannii ATCC 19606 [3]): 3-4 orders of magnitude

Molecule: CC[C@H](C)[C@H](NC(=O)[C@@H](N)CC(C)C)C(=O)N[C@H](C(=O)N[C@@H](CS)C(=O)N[C@@H](Cc1ccccc1)C(=O)N[C@@H](Cc1ccccc1)C(=O)N[C@@H](CCCNC(=N)N)C(=O)N[C@@H](CCC(N)=O)C(=O)N[C@@H](CC(C)C)C(=O)N[C@@H](CCCCN)C(=O)N[C@@H](Cc1ccccc1)C(=O)N[C@@H](Cc1c[nH]cn1)C(=O)N[C@@H](Cc1ccccc1)C(=O)O)C(C)C [Megalocerin-1] (H-LIVCFFRQLKFHF-OH)
- Minimal Inhibitory Concentration: A. baumannii ATCC19606 (A. baumannii ATCC 19606 [2]): 8 µmol/L
- MIC (lowest MIC value obtained in the antimicrobial activity assays) [1]: 8000 mM (≈ 13600 mg/mL)

Molecule: CC(C)C[C@H](NC(=O)CNC(=O)[C@H](CCCNC(=N)N)NC(=O)[C@H](CCCCN)NC(=O)[C@H](CCCNC(=N)N)NC(=O)[C@@H](N)CCCCN)C(=O)N[C@@H](CCCCN)C(=O)N[C@@H](CC(C)C)C(=O)N[C@@H](C)C(=O)N[C@H](C(=O)N[C@@H](C)C(=O)N[C@@H](CC(C)C)C(=O)N[C@@H](CO)C(=O)N[C@@H](CC(C)C)C(=O)N[C@@H](CC(N)=O)C(=O)N[C@@H](CC(N)=O)C(=O)N[C@@H](CCCCN)C(=O)N[C@@H](Cc1ccccc1)C(=O)O)[C@@H](C)O [Mylodonin-2] (H-KRKRGLKLATALSLNNKF-OH)
- Minimal Inhibitory Concentration: A. baumannii ATCC19606 (A. baumannii ATCC 19606 [2]): 64 µmol/L
- MIC (lowest MIC value obtained in the antimicrobial activity assays) [1]: 32000 mM (≈ 65900 mg/mL)

Molecule: CC[C@H](C)[C@H](NC(=O)[C@H](CC(N)=O)NC(=O)[C@H](CC(C)C)NC(=O)[C@@H](NC(=O)[C@H](Cc1ccccc1)NC(=O)[C@@H]1CCCN1C(=O)[C@@H]1CCCN1C(=O)[C@@H](NC(=O)[C@H](CO)NC(=O)[C@H](CC(C)C)NC(=O)[C@H](CCCCN)NC(=O)[C@H](CCCCN)NC(=O)[C@H](Cc1ccc(O)cc1)NC(=O)[C@@H](NC(=O)[C@@H](N)CCCCN)[C@@H](C)CC)[C@@H](C)O)[C@@H](C)O)C(=O)N[C@@H](CCCNC(=N)N)C(=O)N[C@H](C(=O)N[C@@H](CC(C)C)C(=O)N1CCC[C@H]1C(=O)N[C@@H](CCCCN)C(=O)N[C@H](C(=O)N[C@@H](CCCCN)C(=O)N[C@@H](Cc1ccccc1)C(=O)N1CCC[C@H]1C(=O)N[C@@H](CCCCN)C(=O)O)C(C)C)[C@@H](C)O [Mylodonin-3] (H-KIYKKLSTPPFTLNIRTLPKVKFPK-OH)
- MIC (lowest MIC value obtained in the antimicrobial activity assays) [1]: 16000 mM (≈ 47300 mg/mL)

Molecule: CC[C@H](C)[C@H](NC(=O)[C@H](CCCCN)NC(=O)[C@H](CC(C)C)NC(=O)[C@H](CCC(N)=O)NC(=O)[C@H](Cc1ccccc1)NC(=O)[C@@H](NC(=O)[C@@H](NC(=O)[C@H](Cc1ccccc1)NC(=O)[C@H](CC(C)C)NC(=O)[C@@H](NC(=O)[C@@H](N)CC(C)C)[C@@H](C)O)[C@@H](C)CC)[C@@H](C)CC)C(=O)N[C@@H](CO)C(=O)N[C@@H](CCCCN)C(=O)N[C@@H](CC(C)C)C(=O)O [Paleopropin-1] (H-LTLFIIFQLKISKL-OH)
- MIC (lowest MIC value obtained in the antimicrobial activity assays) [1]: 32000 mM (≈ 53700 mg/mL)

Molecule: CC[C@H](C)[C@H](N)C(=O)N[C@@H](CC(C)C)C(=O)N[C@H](C(=O)N[C@@H](CC(C)C)C(=O)N[C@@H](Cc1ccccc1)C(=O)N[C@H](C(=O)N[C@H](C(=O)N[C@@H](Cc1ccccc1)C(=O)N[C@@H](CCC(N)=O)C(=O)N[C@@H](CC(C)C)C(=O)N[C@@H](CCCCN)C(=O)N[C@H](C(=O)N[C@@H](CO)C(=O)N[C@@H](CCCCN)C(=O)N[C@@H](CC(C)C)C(=O)O)[C@@H](C)CC)[C@@H](C)CC)[C@@H](C)CC)[C@@H](C)O [Paleopropin-2] (H-ILTLFIIFQLKISKL-OH)
- MIC (lowest MIC value obtained in the antimicrobial activity assays) [1]: 16000 mM (≈ 28600 mg/mL)

Molecule: CC[C@H](C)[C@H](NC(=O)[C@H](Cc1ccccc1)NC(=O)[C@@H](N)CCCCN)C(=O)N[C@@H](CC(C)C)C(=O)N[C@@H](CC(N)=O)C(=O)N[C@@H](Cc1ccccc1)C(=O)N[C@@H](CCCCN)C(=O)N[C@H](C(=O)N1CCC[C@H]1C(=O)N[C@H](C(=O)N[C@@H](CO)C(=O)N[C@@H](Cc1ccccc1)C(=O)N[C@@H](CCCCN)C(=O)O)[C@@H](C)CC)[C@@H](C)CC [Pinguinusin-1] (H-KFILNFKIPISFK-OH)
- MIC (lowest MIC value obtained in the antimicrobial activity assays) [1]: 4000 mM (≈ 6380 mg/mL)

Molecule: CC[C@H](C)[C@H](N)C(=O)N[C@@H](CO)C(=O)N[C@@H](CC(C)C)C(=O)N[C@@H](Cc1ccccc1)C(=O)N[C@H](C(=O)N[C@@H](CCCNC(=N)N)C(=O)N1CCC[C@H]1C(=O)N[C@@H](CC(C)C)C(=O)N[C@@H](C)C(=O)N[C@@H](CC(C)C)C(=O)NCC(=O)N[C@H](C(=O)N[C@@H](CCCNC(=N)N)C(=O)N[C@@H](CC(C)C)C(=O)O)C(C)C)[C@@H](C)CC [Psephotellin-1] (H-ISLFIRPLALGVRL-OH)
- MIC (lowest MIC value obtained in the antimicrobial activity assays) [1]: 16000 mM (≈ 25100 mg/mL)
- outer membrane permeabilization (NPN uptake) (A. baumannii ATCC19606): permeabilized the outer membrane

Molecule: CC[C@H](C)[C@H](NC(=O)[C@H](CCCCN)NC(=O)[C@@H](NC(=O)[C@H](Cc1c[nH]c2ccccc12)NC(=O)[C@H](CCCCN)NC(=O)[C@@H](N)CCCCN)[C@@H](C)O)C(=O)N[C@@H](Cc1ccc(O)cc1)C(=O)N[C@@H](CO)C(=O)N1CCC[C@H]1C(=O)N[C@@H](CC(C)C)C(=O)N[C@@H](CO)C(=O)N[C@@H](CC(C)C)C(=O)O [Smilodin-1] (H-KKWTKIYSPLSL-OH)
- MIC (lowest MIC value obtained in the antimicrobial activity assays) [1]: 64000 mM (≈ 93700 mg/mL)

Molecule: CC[C@H](C)[C@H](NC(=O)[C@@H](N)[C@@H](C)O)C(=O)N[C@@H](CCCCN)C(=O)N[C@@H](CC(C)C)C(=O)N[C@@H](Cc1ccccc1)C(=O)N[C@@H](CC(C)C)C(=O)N[C@@H](CO)C(=O)N[C@@H](Cc1ccccc1)C(=O)N[C@@H](CCCCN)C(=O)N[C@@H](CC(C)C)C(=O)O [Xenothrixin-1] (H-TIKLFLSFKL-OH)
- MIC (lowest MIC value obtained in the antimicrobial activity assays) [1]: 8000 mM (≈ 9680 mg/mL)

Molecule: polymyxin B [reference compound]
- reduction of the bacterial load two days post-treatment (A. baumannii ATCC 19606 [3]): 4-5 orders of magnitude
